Experiments:
Pseudomonas aeruginosa = assay: MIC, CLSI broth microdilution, Pseudomonas aeruginosa panel; assay type: cell-based
Protocol: (§1) Minimum inhibitory concentrations (MIC) were determined by reference Clinical and Laboratory Standards Institute (CLSI) broth microdilution methods per M7-A7 [2006]. Quality control ranges utilizing E. coli ATCC 25922, P. aeruginosa ATCC 27853 and S. aureus ATCC 29213, and interpretive criteria for comparator agents were as published in CLSI M100-S17 [2007]. Briefly, serial two-fold dilutions of the test compounds were prepared at 2× concentration in Mueller Hinton Broth. The compound dilutions were mixed in 96-well assay plates in a 1:1 ratio with bacterial inoculum. The inoculum was prepared by suspension of a colony from an agar plate that was prepared the previous day. Bacteria were suspended in sterile saline and added to each assay plate to obtain a final concentration of 5×10^5 CFU/mL. The plates were incubated at 35 C for 20 hours in ambient air.
The MIC panel presented in Table 1 contains 27 isolates of Pseudomonas aeruginosa: strains 1-22 are clinical isolates from around the world collected between 2004-2007 which contain representative resistance mechanisms commonly found in Pseudomonas, such as the AAC(6′)-I, AAC(6′)-II, APH(3′)-IIb, ANT(2″)-I, and perm/efflux; strains 23-27 are susceptible.

Acinetobacter baumannii = assay: MIC, CLSI broth microdilution, Acinetobacter baumannii panel; assay type: cell-based
Protocol: as §1
The MIC panel presented in Table 2 contains 29 isolates of Acinetobacter baumannii: strains 1-24 are clinical isolates from around the world collected between 2004-2007 which contain representative resistance mechanisms commonly found in Acinetobacter baumannii, such as AAC(3)-I and II, AAC(6′)-I, ANT(2″)-I, APH(3′)-VI, and perm/efflux; strains 25-29 are susceptible.

[1] = 14-day rat toxicology (nephrotoxicity), once-daily subcutaneous injection; settings: once daily, 14 days, Sprague-Dawley rat
Protocol: The study design utilized once-daily subcutaneous injection administration to the rat for 14 days and assessment of reversibility of any changes following a 28-day recovery period.
The dose volume administered to each animal was 1 mL/kg.

For gentamicin, the MIC (Pseudomonas aeruginosa; P. aeruginosa clinical strain 1 (resistant clinical isolate)) was “D (MIC's greater than or equal to 16.0 μg/mL and lower than 32 μg/mL = D)”, the MIC (Pseudomonas aeruginosa; P. aeruginosa clinical strain 2 (resistant clinical isolate)) was “E (MIC's greater than or equal to 32.0 μg/mL = E)” and the MIC (Pseudomonas aeruginosa; P. aeruginosa clinical strain 3 (resistant clinical isolate)) was “E (MIC's greater than or equal to 32.0 μg/mL = E)”. The MIC (Pseudomonas aeruginosa; P. aeruginosa clinical strain 4 (resistant clinical isolate)) was “E (MIC's greater than or equal to 32.0 μg/mL = E)”, the MIC (Pseudomonas aeruginosa; P. aeruginosa clinical strain 5 (resistant clinical isolate)) was “E (MIC's greater than or equal to 32.0 μg/mL = E)” and the MIC (Pseudomonas aeruginosa; P. aeruginosa clinical strain 6 (resistant clinical isolate)) was “E (MIC's greater than or equal to 32.0 μg/mL = E)”. The MIC (Pseudomonas aeruginosa; P. aeruginosa clinical strain 7 (resistant clinical isolate)) was “E (MIC's greater than or equal to 32.0 μg/mL = E)”, the MIC (Pseudomonas aeruginosa; P. aeruginosa clinical strain 8 (resistant clinical isolate)) was “E (MIC's greater than or equal to 32.0 μg/mL = E)” and the MIC (Pseudomonas aeruginosa; P. aeruginosa clinical strain 9 (resistant clinical isolate)) was “E (MIC's greater than or equal to 32.0 μg/mL = E)”. The MIC (Pseudomonas aeruginosa; P. aeruginosa clinical strain 10 (resistant clinical isolate)) was “E (MIC's greater than or equal to 32.0 μg/mL = E)”, the MIC (Pseudomonas aeruginosa; P. aeruginosa clinical strain 11 (resistant clinical isolate)) was “D (MIC's greater than or equal to 16.0 μg/mL and lower than 32 μg/mL = D)” and the MIC (Pseudomonas aeruginosa; P. aeruginosa clinical strain 12 (resistant clinical isolate)) was “E (MIC's greater than or equal to 32.0 μg/mL = E)”. The MIC (Pseudomonas aeruginosa; P. aeruginosa clinical strain 13 (resistant clinical isolate)) was “E (MIC's greater than or equal to 32.0 μg/mL = E)”, the MIC (Pseudomonas aeruginosa; P. aeruginosa clinical strain 14 (resistant clinical isolate)) was “E (MIC's greater than or equal to 32.0 μg/mL = E)” and the MIC (Pseudomonas aeruginosa; P. aeruginosa clinical strain 15 (resistant clinical isolate)) was “E (MIC's greater than or equal to 32.0 μg/mL = E)”. The MIC (Pseudomonas aeruginosa; P. aeruginosa clinical strain 16 (resistant clinical isolate)) was “E (MIC's greater than or equal to 32.0 μg/mL = E)”, the MIC (Pseudomonas aeruginosa; P. aeruginosa clinical strain 17 (resistant clinical isolate)) was “E (MIC's greater than or equal to 32.0 μg/mL = E)” and the MIC (Pseudomonas aeruginosa; P. aeruginosa clinical strain 18 (resistant clinical isolate)) was “E (MIC's greater than or equal to 32.0 μg/mL = E)”. For the same substance, the MIC (Pseudomonas aeruginosa; P. aeruginosa clinical strain 19 (resistant clinical isolate)) was “E (MIC's greater than or equal to 32.0 μg/mL = E)”, the MIC (Pseudomonas aeruginosa; P. aeruginosa clinical strain 20 (resistant clinical isolate)) was “C (MIC's greater than or equal to 8 μg/mL and lower than 16.0 μg/mL = C)” and the MIC (Pseudomonas aeruginosa; P. aeruginosa clinical strain 21 (resistant clinical isolate)) was “C (MIC's greater than or equal to 8 μg/mL and lower than 16.0 μg/mL = C)”. For the same substance, the MIC (Pseudomonas aeruginosa; P. aeruginosa clinical strain 22 (resistant clinical isolate)) was “B (MIC's of greater than 1.0 μg/mL and lower than 8 μg/mL = B)”, the MIC (Pseudomonas aeruginosa; P. aeruginosa strain 23 (susceptible)) was “A (MIC's of 1.0 μg/mL or less = A)” and the MIC (Pseudomonas aeruginosa; P. aeruginosa strain 24 (susceptible)) was “B (MIC's of greater than 1.0 μg/mL and lower than 8 μg/mL = B)”. The MIC (Pseudomonas aeruginosa; P. aeruginosa strain 25 (susceptible)) was “A (MIC's of 1.0 μg/mL or less = A)”, the MIC (Pseudomonas aeruginosa; P. aeruginosa strain 26 (susceptible)) was “A (MIC's of 1.0 μg/mL or less = A)” and the MIC (Pseudomonas aeruginosa; P. aeruginosa strain 27 (susceptible)) was “A (MIC's of 1.0 μg/mL or less = A)”. For the same substance, the MIC (Acinetobacter baumannii; A. baumannii clinical strain 1 (resistant clinical isolate)) was “E (MIC's greater than or equal to 32.0 μg/mL = E)”, the MIC (Acinetobacter baumannii; A. baumannii clinical strain 2 (resistant clinical isolate)) was “E (MIC's greater than or equal to 32.0 μg/mL = E)” and the MIC (Acinetobacter baumannii; A. baumannii clinical strain 3 (resistant clinical isolate)) was “C (MIC's greater than or equal to 8 μg/mL and lower than 16.0 μg/mL = C)”. For the same substance, the MIC (Acinetobacter baumannii; A. baumannii clinical strain 4 (resistant clinical isolate)) was “E (MIC's greater than or equal to 32.0 μg/mL = E)”, the MIC (Acinetobacter baumannii; A. baumannii clinical strain 5 (resistant clinical isolate)) was “E (MIC's greater than or equal to 32.0 μg/mL = E)” and the MIC (Acinetobacter baumannii; A. baumannii clinical strain 6 (resistant clinical isolate)) was “E (MIC's greater than or equal to 32.0 μg/mL = E)”. The MIC (Acinetobacter baumannii; A. baumannii clinical strain 7 (resistant clinical isolate)) was “E (MIC's greater than or equal to 32.0 μg/mL = E)”, the MIC (Acinetobacter baumannii; A. baumannii clinical strain 8 (resistant clinical isolate)) was “E (MIC's greater than or equal to 32.0 μg/mL = E)” and the MIC (Acinetobacter baumannii; A. baumannii clinical strain 9 (resistant clinical isolate)) was “E (MIC's greater than or equal to 32.0 μg/mL = E)”. For the same substance, the MIC (Acinetobacter baumannii; A. baumannii clinical strain 10 (resistant clinical isolate)) was “E (MIC's greater than or equal to 32.0 μg/mL = E)”, the MIC (Acinetobacter baumannii; A. baumannii clinical strain 11 (resistant clinical isolate)) was “E (MIC's greater than or equal to 32.0 μg/mL = E)” and the MIC (Acinetobacter baumannii; A. baumannii clinical strain 12 (resistant clinical isolate)) was “E (MIC's greater than or equal to 32.0 μg/mL = E)”. The MIC (Acinetobacter baumannii; A. baumannii clinical strain 13 (resistant clinical isolate)) was “A (MIC's of 1.0 μg/mL or less = A)”, the MIC (Acinetobacter baumannii; A. baumannii clinical strain 14 (resistant clinical isolate)) was “B (MIC's of greater than 1.0 μg/mL and lower than 8 μg/mL = B)” and the MIC (Acinetobacter baumannii; A. baumannii clinical strain 15 (resistant clinical isolate)) was “A (MIC's of 1.0 μg/mL or less = A)”. For the same substance, the MIC (Acinetobacter baumannii; A. baumannii clinical strain 16 (resistant clinical isolate)) was “B (MIC's of greater than 1.0 μg/mL and lower than 8 μg/mL = B)”, the MIC (Acinetobacter baumannii; A. baumannii clinical strain 17 (resistant clinical isolate)) was “E (MIC's greater than or equal to 32.0 μg/mL = E)” and the MIC (Acinetobacter baumannii; A. baumannii clinical strain 18 (resistant clinical isolate)) was “E (MIC's greater than or equal to 32.0 μg/mL = E)”. For the same substance, the MIC (Acinetobacter baumannii; A. baumannii clinical strain 19 (resistant clinical isolate)) was “B (MIC's of greater than 1.0 μg/mL and lower than 8 μg/mL = B)”, the MIC (Acinetobacter baumannii; A. baumannii clinical strain 20 (resistant clinical isolate)) was “C (MIC's greater than or equal to 8 μg/mL and lower than 16.0 μg/mL = C)” and the MIC (Acinetobacter baumannii; A. baumannii clinical strain 21 (resistant clinical isolate)) was “E (MIC's greater than or equal to 32.0 μg/mL = E)”. For the same substance, the MIC (Acinetobacter baumannii; A. baumannii clinical strain 22 (resistant clinical isolate)) was “E (MIC's greater than or equal to 32.0 μg/mL = E)”, the MIC (Acinetobacter baumannii; A. baumannii clinical strain 23 (resistant clinical isolate)) was “E (MIC's greater than or equal to 32.0 μg/mL = E)” and the MIC (Acinetobacter baumannii; A. baumannii clinical strain 24 (resistant clinical isolate)) was “E (MIC's greater than or equal to 32.0 μg/mL = E)”. The MIC (Acinetobacter baumannii; A. baumannii strain 25 (susceptible)) was “A (MIC's of 1.0 μg/mL or less = A)”, the MIC (Acinetobacter baumannii; A. baumannii strain 26 (susceptible)) was “A (MIC's of 1.0 μg/mL or less = A)” and the MIC (Acinetobacter baumannii; A. baumannii strain 27 (susceptible)) was “A (MIC's of 1.0 μg/mL or less = A)”. For the same substance, the MIC (Acinetobacter baumannii; A. baumannii strain 28 (susceptible)) was “A (MIC's of 1.0 μg/mL or less = A)”, the MIC (Acinetobacter baumannii; A. baumannii strain 29 (susceptible)) was “A (MIC's of 1.0 μg/mL or less = A)” and the mortality and morbidity ([1]; 100 mg/kg/day subcutaneous) was “resulted in mortality and morbidity at 100 mg/kg/day due to nephrotoxicity”. The “macroscopic and microscopic changes in the kidneys” value ([1]; all dose levels (10, 30 or 100 mg/kg/day) subcutaneous) was “observed at all dose levels”.
